The first assay addresses T1, BRD4(BD1) (Homo sapiens, UniProt O60885).
T1 construct: a BRD4(BD1) synthetic gene that includes a TEV cleavage site was purchased from LifeTechnology; made in house
The assay can be described thus: HTRF assay on robot-synthesised focused library (Example 4 bis). Format: binding. The conditions noted are these: Table 2 bis; focused library without intermediary purification; read-out: HTRF (IC50, μM), effect on BRD4(BD1) activity. On the procedure: The Accelerator Synthetizer SLT100 allows the efficient synthesis of the focused library in 96 well plates that can be directly transferred to a Labcyte Access/Echo® Laboratory Workstation to assess the compounds for their ability to disrupt bromodmain/histone complexes using the homogeneous time-resolved fluorescence (HTRF®) technology (IC50 μM).
After the efficient synthesis of the focused library in 96 well plates with the Accelerator Synthetizer SLT100, the focused library has been directly transferred to a Labcyte Access/Echo® Laboratory Workstation to assess the compounds for their ability to disrupt bromodmain/histone complexes using the homogeneous time-resolved fluorescence (HTRF®) technology (IC50 μM, table 2bis).
Background: In TR-FRET formats the signal depends on donor and acceptor labels being close together.
Turning to `CCCCn1c(=O)[nH]c(=O)c2c1nc(CSc1nc3nc(C)c(CCC(=O)O)c(C)n3n1)n2CC` [Compound 33], the IC50 stood at 8.5 µM.

On to `CCCCn1c(=O)[nH]c(=O)c2c1nc(CSc1nc3nc(C)c(CC(=O)O)c(C)n3n1)n2CC` [Compound 34], for which the IC50 was 44.5 µM.

Turning to `CCCCn1c(=O)[nH]c(=O)c2c1nc(CSc1nc3ccc(C(=O)O)cc3o1)n2CC` [Compound 35], the IC50 is 19.2 µM.

Consider `CCCCn1c(=O)[nH]c(=O)c2c1nc(CSc1nc3cc(C(=O)O)ccc3o1)n2CC` [Compound 36], for which the IC50 was determined as 3 µM.

On to `CCCCn1c(=O)[nH]c(=O)c2c1nc(CSc1nc3cc(S(=O)(=O)CC)ccc3o1)n2CC` [Compound 37], for which the IC50 came out at 16.6 µM.

On to `CCCCn1c(=O)[nH]c(=O)c2c1nc(CSc1nc3cc(C(=O)OC)ccc3o1)n2CC` [Compound 38], for which the IC50 was found to be 48.2 µM.

Consider `CCCCn1c(=O)[nH]c(=O)c2c1nc(CSc1nc3cc(S(=O)(=O)N4CCOCC4)ccc3[nH]1)n2CC` [Compound 39], for which the IC50 is 38.2 µM.

In the case of `CCCCn1c(=O)[nH]c(=O)c2c1nc(CSc1nc3ccc([NH2+][O-])cc3[nH]1)n2CC` [Compound 40], the IC50 stood at 33 µM.

As to `CCCCn1c(=O)[nH]c(=O)c2c1nc(CSc1nc3cc(C(=O)OCC)ccc3n1CC)n2CC` [Compound 41], the IC50 stood at 6.4 µM.

With `CCCCn1c(=O)[nH]c(=O)c2c1nc(COc1nc3cc(C(=O)O)ccc3[nH]1)n2CC` [Compound 42], the IC50 is 45.3 µM.

Consider `CCCCn1c(=O)[nH]c(=O)c2c1nc(COc1ccc(-n3[nH]c(C(=O)O)cc3=O)nn1)n2CC` [Compound 43], for which the IC50 was 33.4 µM.

On to `CCCCn1c(=O)[nH]c(=O)c2c1nc(COc1ccc(-n3ncc(C(=O)O)c3CC)nn1)n2CC` [Compound 44], for which the IC50 came to 21.9 µM.

With `CCCCn1c(=O)[nH]c(=O)c2c1nc(COc1ccc(C3CNCC3C(=O)O)cc1)n2CC` (stereo not shown) [Compound 45], the IC50 was 11.6 µM.

Turning to `CCCCn1c(=O)[nH]c(=O)c2c1nc(CSc1nnc(-c3ccccc3)c(-c3ccccc3)n1)n2CC` [Compound 46], the IC50 stood at 20.1 µM.

For the molecule `CCCCn1c(=O)[nH]c(=O)c2c1nc(COc1ccc3c(=O)c(Oc4ccccc4)coc3c1)n2CC` [Compound 47], the IC50 is 30.1 µM.

As to `CCCCn1c(=O)[nH]c(=O)c2c1nc(COc1ccc3c(=O)c(-c4ccccc4)coc3c1)n2CC` [Compound 48], the IC50 turned out to be 35.2 µM.

`CCCCn1c(=O)[nH]c(=O)c2c1nc(COc1cn3cc(C(=O)O)ccc3n1)n2CC` [Compound 49]: the IC50 was 35.1 µM.

Take `CCCCn1c(=O)[nH]c(=O)c2c1nc(COc1cccc(C(=O)NCc3ccccc3)c1)n2CC` [Compound 51]: the IC50 turned out to be 30.2 µM.

For the molecule `CCCCn1c(=O)[nH]c(=O)c2c1nc(COc1ccc(Nc3nc4ccccc4c(=O)[nH]3)cc1)n2CC` [Compound 52], the IC50 was 33 µM.

Take `CCCCn1c(=O)[nH]c(=O)c2c1nc(CSc1nc(O)c3c(C)cc(C)nc3n1)n2CC` [Compound 53]: the IC50 is 4.4 µM.

With `CCCCn1c(=O)[nH]c(=O)c2c1nc(CSc1nc3nc(C)ccc3o1)n2CC` [Compound 54], the IC50 is 7.1 µM.

As to `CCn1c(CSc2nc3nc(C)c(CCC(=O)O)c(C)n3n2)nc2c1c(=O)[nH]c(=O)n2Cc1ccc(Cl)cc1` [Compound 55], the IC50 was determined as 14.2 µM.

Regarding `CCn1c(CSc2nc3ccc(C(=O)O)cc3o2)nc2c1c(=O)[nH]c(=O)n2Cc1ccc(Cl)cc1` [Compound 56], the IC50 turned out to be 13.2 µM.

Turning to `CCn1c(CSc2nc3cc(C(=O)O)ccc3o2)nc2c1c(=O)[nH]c(=O)n2Cc1ccc(Cl)cc1` [Compound 57], the IC50 turned out to be 7.5 µM.

Take `CCn1c(CSc2nc3cc(S(=O)(=O)N4CCCCC4)ccc3o2)nc2c1c(=O)[nH]c(=O)n2Cc1ccc(Cl)cc1` [Compound 58]: the IC50 amounted to 2.7 µM.

As for `CCn1c(CSc2nc3cc(S(=O)(=O)CC)ccc3o2)nc2c1c(=O)[nH]c(=O)n2Cc1ccc(Cl)cc1` [Compound 59], the IC50 came out at 6.9 µM.

With `CCn1c(CSc2nc3cc([N+](=O)[O-])ccc3o2)nc2c1c(=O)[nH]c(=O)n2Cc1ccc(Cl)cc1` [Compound 60], the IC50 amounted to 8.4 µM.

For `CCn1c(CSc2nc3cc(S(=O)(=O)N(C)C)ccc3o2)nc2c1c(=O)[nH]c(=O)n2Cc1ccc(Cl)cc1` [Compound 61], the IC50 amounted to 4.7 µM.

Take `CCn1c(CSc2nc3cc(S(=O)(=O)N4CCOCC4)ccc3o2)nc2c1c(=O)[nH]c(=O)n2Cc1ccc(Cl)cc1` [Compound 62]: the half-inhibitory concentration (IC50) was 8.9 µM.

`CCn1c(CSc2nc3cc(C(=O)OC)ccc3o2)nc2c1c(=O)[nH]c(=O)n2Cc1ccc(Cl)cc1` [Compound 63]: the IC50 was 8.9 µM.

With `CCn1c(CSc2nc3ccc(C(=O)O)cc3[nH]2)nc2c1c(=O)[nH]c(=O)n2Cc1ccc(Cl)cc1` [Compound 64], the IC50 was 5.1 µM.

As to `CCn1c(CSc2nc3cc(S(=O)(=O)N4CCOCC4)ccc3[nH]2)nc2c1c(=O)[nH]c(=O)n2Cc1ccc(Cl)cc1` [Compound 65], the IC50 worked out at 32.7 µM.

For the molecule `CCOC(=O)c1ccc2c(c1)nc(SCc1nc3c(c(=O)[nH]c(=O)n3Cc3ccc(Cl)cc3)n1CC)n2CC` [Compound 66], the IC50 came out at 16.8 µM.

As to `CCCCNS(=O)(=O)c1ccc2nc(SCc3nc4c(c(=O)[nH]c(=O)n4Cc4ccc(Cl)cc4)n3CC)[nH]c2c1` [Compound 67], the IC50 came out at 8.9 µM.

Regarding `CCn1c(COc2nc3cc(C(=O)O)ccc3[nH]2)nc2c1c(=O)[nH]c(=O)n2Cc1ccc(Cl)cc1` [Compound 68], the IC50 is 35.5 µM.

Turning to `CCn1c(COc2ccc(-n3[nH]c(C(=O)O)cc3=O)nn2)nc2c1c(=O)[nH]c(=O)n2Cc1ccc(Cl)cc1` [Compound 69], the IC50 is 8.4 µM.

In the case of `CCc1c(C(=O)O)cnn1-c1ccc(OCc2nc3c(c(=O)[nH]c(=O)n3Cc3ccc(Cl)cc3)n2CC)nn1` [Compound 70], the IC50 was determined as 6.5 µM.

In the case of `CCn1c(COc2nnc(-c3ccccc3)c(-c3ccccc3)n2)nc2c1c(=O)[nH]c(=O)n2Cc1ccc(Cl)cc1` [Compound 71], the IC50 was determined as 17.8 µM.

For the molecule `CCn1c(COc2ncc(-c3ccc(C(=O)O)s3)cc2C)nc2c1c(=O)[nH]c(=O)n2Cc1ccc(Cl)cc1` [Compound 72], the IC50 was determined as 4.4 µM.

In the case of `CCn1c(COc2ccc(C3NC(C(=O)O)CS3)cc2)nc2c1c(=O)[nH]c(=O)n2Cc1ccc(Cl)cc1` (stereo not shown) [Compound 73], the IC50 is 7.5 µM.

Turning to `CCn1c(CSc2nnc(Cc3cc(C)nn3C)n2CC2CCCO2)nc2c1c(=O)[nH]c(=O)n2Cc1ccc(Cl)cc1` (stereo not shown) [Compound 74], the IC50 came to 5.5 µM.

With `CCn1c(COc2cccc(C(=O)NCc3ccccc3)c2)nc2c1c(=O)[nH]c(=O)n2Cc1ccc(Cl)cc1` [Compound 75], the IC50 came out at 3.9 µM.

With `CCn1c(COc2ccc(Nc3nc4ccccc4c(=O)[nH]3)cc2)nc2c1c(=O)[nH]c(=O)n2Cc1ccc(Cl)cc1` [Compound 76], the IC50 was 12.7 µM.

`CCn1c(CSc2nc3nc(C)c(Br)cc3[nH]2)nc2c1c(=O)[nH]c(=O)n2Cc1ccc(Cl)cc1` [Compound 79]: the IC50 amounted to 4.2 µM.

Consider `CCn1c(CSc2nc3ncccn3n2)nc2c1c(=O)[nH]c(=O)n2Cc1ccc(Cl)cc1` [Compound 80], for which the IC50 is 10.6 µM.

In another assay the target is T1, BRD4(BD1). The assay can be described thus: HTRF assay, disruption of bromodomain/histone peptide interaction. Format: binding. The conditions noted are these: HTRF; mean ± SD of three experiments; Table 2; read-out: IC50 μM, effect on BRD4(BD1) activity. On the procedure: HTRF assays were performed in white 384 Well Small Volume™ HiBase Polystyrene Microplates (Greiner) with a total working volume of 20 μL. Compounds were dispensed, with 200 nL per well (1% final DMSO), from a concentration stock of 1 mM in 100% DMSO and with serial DMSO dilutions, using a Mosquito Crystal pipetting robot platform (TTP labtech). The IC50 measurements were performed in triplicates (Table 2 and 3). All HTRF reagents were purchased from CisBio Bioassays and reconstituted according to the supplier protocols. For each assay 14.7 μL of mix 1 (protein+peptide) is added in the assay wells, containing previously dispensed inhibitors, according to the final concentration and buffer described in Table 4, using a Biomek NX MC pipetting robot (Beckman). Then, 5.1 μL of mix 2 (donnor+acceptor) is added. HTRF signals were measured, after a final incubation (overnight at room temperature), using a PHERAstar FS (BMG Labtech) with an excitation filter at 337 nm and fluorescence wavelength measurement at 620 and 665 nm, an integration delay of 60 μs and an integration time of 500 μs. Results were analyzed with a two-wavelengths signal ratio: [intensity (665 nm)/intensity (620 nm)]*10^4. Percentage of inhibition was calculated using the following equation: % inhibition=[(compound signal)−(min signal)]/[(max signal)−(min signal)]*100, where ‘max signal’ is the signal ratio with the compound vehicle alone (DMSO) and ‘min signal’ the signal ratio without peptide.
For Isothermal Titration Calorimetry (ITC) and crystallogenesis, BRD4(BD1) was produced and purified using a histidine tag affinity chromatography as described by Filipakopoulos et al.9 For these experiments, a pNIC28-BSA4 expression vector containing BRD4(BD1) and a Tobacco Etch Virus (TEV) protease cleavage site have kindly been provided by Stefan Knapp laboratory from the SGC at the University of Oxford. After size exclusion chromatography, the fractions presenting pure BRD4(BD1) after TEV cleavage of the histidine tag were pooled and concentrated to 25 mg/mL for crystallogenesis. For ITC assays, the protein was concentrated up to at 6 mg/mL and the DTT was removed using a buffer exchange column (PD10 from GE healthcare) equilibrated with 10 mM HEPES pH=7.5, 150 mM NaCl. For Homogeneous Time Resolved Fluorimetry (HTRF) experiments, a BRD4(BD1) synthetic gene that includes a TEV cleavage site was purchased from LifeTechnology in a pDONR transport vector before cloning into a pDESTTM15 expression vector for GST affinity purification. Protein production and purification was carried out using similar protocols and buffers as used for the His-BRD4(BD1) system. Purification was carried on GST affinity resin (Thermo Scientific) and reduced glutathione was used for protein release. GST-BRD4(BD1) was further purified by size exclusion chromatography on a Superdex 16/60 Hiload column (GE Healthcare) using 20 mM TRIS pH=8.0, 150 mM NaCl Buffer.
In the case of `CCCCc1c(C)nc2nc(CSc3nc4c(c(=O)[nH]c(=O)n4CCCC)n3CC)nn2c1C` [Compound 32a, 3-Butyl-8-(6-butyl-5,7-dimethyl-[1,2,4]triazolo[1,5-a]pyrimidin-2-ylmethylsulfanyl)-7-ethyl-3,7-dihydro-purine-2,6-dione], the IC50 amounted to 54 µM.

The IC50 is the point on the concentration scale where inhibition reaches its midpoint.

For the origin of these results see patent US11225481B2 (Centre national de la recherche scientifique, priority 2015, dated 2022).
